The values that follow come from US20080027098A1, “Derivatives of alpha-phenylthiocarboxylic and alpha-phenyloxy-carboxylic acids useful for the treatment of diseases responding to PPARalpha activation” (SIGMA-TAU INDUSTRIE FARMACEUTICHE RIUNITE S.p.A., priority 2002, published 2008).

Marks after values point to notes of the source that are not given here.

The test system of data set [1] is standard diet-fed c57bl/6j mice. The data set is described as follows: Hypolipidemic activity in standard diet-fed c57bl/6j mice. Type of data set: in vivo. The note with it: 15 days, post-absorptive state, control 53.8 ± 4.2. How it is done:
Standard Diet-Fed c57bl/6j Mice
ST2518 was evaluated in comparison with fenofibrate also in c57b1/6j mice fed with standard diet (Table 5).

In data set [2] the test system is db/db mice. The data set is described as follows: Increase in HDL-cholesterol levels in db/db mice. It counts as in vivo. How it is done: Increase in HDL-Cholesterol Levels in db/db Mice
In this experiment db/db mice were used in which PPARα expression is above normal (Memon et al., Endocrinology 2000, 4021-4031) and HDL-cholesterol levels are substantially elevated (Silver et al., J Biol Chem 1999, 274: 4140-4146).
The C57BL[KsJ db/db mice were acclimatised for one week in standard conditions (22±2° C.; 55±15% humidity; 15-20 air changes/hour; 12 hours light/darkness cycle with light from 7.00 a.m. to 7 p.m.) with a standard 4 RF21 diet (Mucedola). Blood samples were taken in post-absorption conditions (fasting from 8.30 a.m. to 4.30 p.m.) from the caudal vein with the aid of a Jelco 22G catheter (Johnson and Johnson). Glucose, insulin, triglyceride, cholesterol, free fatty acid and urea levels were checked in plasma for a homogeneous distribution of the mice in the treatment groups.
At the beginning of treatment the animals' body weight was checked and arrangements were made to monitor their water and feed consumption. […]
The compound tested, obtained as described in example 4 (ST 1929) was administered at the dose of 24 mg/kg in 10 ml/kg of vehicle (1% CMC containing Tween 80 0.5% in deionized H2O).
The other compounds tested were also administered at a dose equivalent to that in example 4.
Ciprofibrate, a known PPARα agonist (Varanasi et al., J Biol Chem 1996, 271: 2147-2155; Latruffe et al. Cell Biochem Biophys 2000, 32 Spring: 213-220) was administered at the dose of 20 mg/kg (Dwivedi et al., Toxicol Pathol 1989, 17: 16-26; Qi et al., Proc Natl Acad Sci USA 1999, 96: 1585-1590).
The animals were sacrificed (by decapitation) in conditions of post-absorption (fasting from 9.30 a.m. to 4.30 p.m.) 7 hours after the last treatment. The levels of a number of important lipid and carbohydrate metabolism parameters were determined in the serum.
The HDL-cholesterol levels were measured by treating the serum with phosphotungstic-acid-based precipitating reagent (ABX Diagnostics) which removes the chylomicrons, very low density and low density lipoproteins and determining the HDL-cholesterol levels in the supernatant with the aid of the Cholesterol Kit (ABX Diagnostics) and the Cobas Mira S Autoanalyzer (Roche).
In a further experiment, where the above reported ST2195 was used as reference compound, db/db mice were treated orally twice daily (8.30 a.m. and 6.30 p.m.) for 14 days with the test items (equimolar to 25 mg/kg of ST2 195) giving the following results reported in Table 3: […]

For data set [3], the system named is high-cholesterol diet-fed CD-1 mice. The data set is described as follows: Hypolipidemic activity in high-cholesterol diet-fed CD-1 mice. Type of data set: in vivo. To be noted: 16 days, post-absorptive state; for P-triglycerides: control 49 ± 3; for P-Cholesterol: control 350 ± 28. The method, then:
High-Cholesterol Diet-Fed CD-1 Mice
ST2518, fenofibrate, rosiglitazone and pioglitazone (PPARγ agonists) were administered by gavage, for 16 days, to CD-1 mice fed with high-cholesterol diet, and plasma parameters were evaluated in post-absorptive state.

In data set [4] the test system is hAPO A I transgenic mice. Kind of data set: Plasma lipid parameters in hAPO A I transgenic mice. To be noted: 16 days, post-absorptive state; for P-triglycerides: control 75 ± 6. It counts as in vivo. The method, then: ST2518, fenofibrate and rosiglitazone were administered by gavage for 16 days, and plasma (p) parameters were evaluated in post-absorptive state.

In data set [5] the target is T1, Gal4DBD/PPARαLBD (Homo sapiens, UniProt Q07869).
T1 construct: expressed in transfected cells; host or cells: COS-7 (monkey kidney fibroblasts)
T1 sequence (Q07869 239-466 limits assumed): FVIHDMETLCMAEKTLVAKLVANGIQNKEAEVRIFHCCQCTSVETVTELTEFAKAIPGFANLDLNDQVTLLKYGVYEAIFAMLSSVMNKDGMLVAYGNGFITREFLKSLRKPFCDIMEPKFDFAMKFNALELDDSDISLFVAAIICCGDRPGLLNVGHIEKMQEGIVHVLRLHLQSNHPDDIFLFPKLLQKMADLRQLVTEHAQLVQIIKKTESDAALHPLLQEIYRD
Kind of data set: Transient transfection of COS-7 cells, Gal4DBD/PPARαLBD transactivation, CAT reporter (II method). Type of data set: cell-based. The note with it: read-out: percentage activation of the CAT reporter gene compared to reference compound WY-14.643 2 μM taken as 100%. An excerpt:
Transient Transfection of Eukaryotic Cells to Evaluate the Agonist Activity of PPARα Ligands (II Method)
An alternative transactivation system, which differs mainly in the way the receptor is positioned onto the DNA, and depending on how the event of ligand binding is translated into transcriptional activation, was used.
In this model eukaryotic cells were transiently transfected with an expression vector encoding a fusion protein between the DNA binding domain (DBD) of the yeast Gal4 transcription factor and the ligand binding domain (LBD) of the PPARα (Gal4DBD/PPARαLBD). The reporter vector containing 5 copies of the high affinity binding site for Gal4 (named UAS, upstream activating sequence) upstream of a strong viral promoter linked to the reporter gene chloramphenicol acetyltransferase (CAT), was co-transfected. This model offered some advantages, the most important of which was the absence of interference by endogenous receptors.
Besides expression and reporter vectors, cells were transfected with a control vector pCH110 that encodes the β-galactosidase enzyme to correct for differences in transfection efficiency.
A monkey kidney fibroblast cell line (COS-7) was used. Cells were co-transfected with the plasmid carrying the gene-reporter, the expression plasmid encoding the fusion protein Gal4DBD/PPARαLBD, and the control vector pCH110. Cells were then treated with increasing concentrations of test compounds and the CAT activity was measured. Untreated cells were used as control.
Monkey kidney fibroblasts (COS-7) were routinely grown in DMEM (Dulbecco's modified Eagle's medium) supplemented with 3.7 g/l sodium bicarbonate, 4 mM L-glutamine, 4.5 g/l glucose, 1 mM sodium piruvate and 10% v/v foetal bovine serum, in the presence of streptomycin 100 μg/ml and penicillin 100 U/ml.
COS-7 cells were transiently transfected by using the multi-component lipid-based FuGENE6 Transfection Reagent that complexes with and transports DNA into the cells during transfection. Cells were seeded at 1.2×10^5 cells/well, in 12-well plates, and cultured overnight at 37° C. in a 5% v/v carbon dioxide atmosphere. Two hours before transfection the culture medium was replaced by fresh serum-free medium and then transfection was performed with FuGENE6 Transfection Reagent according to the instructions of the manufacturer. Briefly, the transfection mixture containing (for each well) 0.8 μg of the expression vector, 1.6 μg of the reporter vector, 0.8 μg of the control vector and 9 μl of FuGENE6 Transfection Reagent was added directly to the cells in the presence of serum-free medium. After 5 hours the transfection medium was replaced by 1 ml of the complete culture medium with or without the test molecules at 3 different concentrations (2, 20 and 100 μM). 2 μM Wy-14,643, a known PPARα ligand, was used as positive control.
After 48 h, the cells were washed twice with 1 ml phosphate buffer (PBS) and then harvested by scraping them in TEN buffer (Tris [hydroxymethyl] aminomethane 10 mM pH 8, ethylenediamine tetraacetic acid 1 mM, pH 8, sodium chloride 0.1 M). Following centrifugation at room temperature, for 3 min at 1000 revs per minute (rpm), cells were resuspended with 60 μl of Lysis buffer (0.25M Tris-HCl, pH 8) and lysed by three rapid freeze/thaw cycles (three 5-minute cycles). Cell debris was then removed by centrifugating at 4° C., for 15 min at 15.000 revs per minute (rpm),. Glycerol (final 10% v/v) and β-mercaptoethanol (final 5 mM) were then added (final volume 75 μl) and the cell extracts were stored at −80° C. until assayed.
The CAT activity assay was performed as follows: 20 μl of cell lysate (pre-warmed at 65° C. for 10 min to deactivate internal deacetylase enzymatic activity) were added to 10 μl of 3.5 mg/ml n-butirryl-CoA, 5 μl ([…]) of [14C]-chloramphenicol and 65 μl of distilled H20 and incubated 2 h at 37° C. Reaction was blocked by adding 200 μl of the solution xylene/2,6,10,14 tetramethyl-pentadecane (in a 1:2 v/v mixture). […]
In general terms: Reporter assays use an easily measured gene product as a stand-in for the process of interest.

For `CC(C)OC(=O)C(C)(C)Oc1ccc(C(=O)c2ccc(Cl)cc2)cc1` [Fenofibrate, reference compound], the “Triglycerides (plasma)” value in data set [1] (25 mg/kg/bid by gavage) is listed as 38.0 ± 2.9 Δ mg/dl; in data set [1] (75 mg/kg/bid by gavage) it was 34.4 ± 2.7 Δ mg/dl; in data set [1] (125 mg/kg/bid by gavage), 36.0 ± 1.2 Δ mg/dl. Also, the “Increase in HDL/cholesterol levels (%)” value was “+18%” in data set [2] (24.7 mg/kg, 25 days) and “+56[…] %” in data set [2] (second experiment, 24.7 mg/kg, 16 days). In addition, the P-triglycerides in data set [3] (26 mg/Kg/bid by gavage) was found to be 43 ± 3 mg/dL; in data set [4] (26 mg/kg/bid by gavage), 78 ± 6 mg/dL. Moreover, the P-Cholesterol in data set [3] (26 mg/Kg/bid by gavage) is listed as 308 ± 18 mg/dL.

For `COc1ccc(OC(=O)N(CC(=O)O)Cc2ccc(OCCc3nc(-c4ccccc4)oc3C)cc2)cc1` [Muraglitazar, reference compound], the “Triglycerides (plasma)” value in data set [1] (5 mg/kg/bid by gavage) worked out at 45.6 ± 3.4 mg/dL.

`COC(=O)C(C)(C)Sc1ccc(OC(=O)NCc2ccc(OC)cc2)cc1` [ST2031, methyl 2-[4-[[(4-methoxybenzyl)carbamoyl]oxy]phenylthio]isobutyrate]: the melting point was in the range of 64 to 65 °C. Also, the “Increase in HDL/cholesterol levels (%)” value in data set [2] (oral twice daily, dose equivalent to 24 mg of ST1929, 10 days) was “+51 ▴ %”.

With `COC(=O)C(C)(C)Sc1cccc(OCCn2c3ccccc3c3ccccc32)c1` [ST2365, methyl 2-[3-(2-(carbazol-9-yl)ethoxy)phenyl-thio]isobutyrate], the melting point lay in the range of 101 to 103 °C.

`COC(=O)C(C)(C)Sc1ccc(OCCn2c3ccccc3c3ccccc32)cc1` [ST2387, methyl 2-[4-(2-(carbazol-9-yl)ethoxy)phenyl-thio]isobutyrate] registered a melting point of 72 to 74 °C.

The molecule `COC(=O)C(C)(C)Sc1cccc(OCc2ccc(-c3ccc([N+](=O)[O-])cc3)o2)c1` [ST2501, methyl 2-[3-[5-(4-nitrophenyl)furfuryl-oxy]phenylthio]isobutyrate] showed a melting point of 81 to 82 °C. Moreover, the activation at 2 µM in data set [5] (2 μM) worked out at 85.7%. Besides, the activation at 20 µM in data set [5] (20 μM) was 288%. Further, in data set [5] (100 μM), the activation at 100 µM was found to be 231%.

On to `COC(=O)C(C)(C)Sc1ccc(OCCc2ccc(Cl)cc2Cl)cc1` [ST2531, methyl 2-[4-(2-(2,4-dichloro-phenyl)ethoxy)phenylthio]isobutyrate], for which the melting point fell in the range of 73 to 74 °C.

Consider `CC(C)(Sc1ccc(OCCc2ccc(Cl)cc2)cc1)C(=O)O` [ST 2505, 2-[4-[2-(4-chlorophenyl)ethoxy]phenylthio]-2-methylpropanoic acid], for which the melting point was in the range of 87 to 88 °C.

In data set [3] (20 mg/Kg/bid by gavage), `CCc1ccc(CCOc2ccc(CC3SC(=O)NC3=O)cc2)nc1` (stereo not shown) [pioglitazone] had a P-triglycerides of 43 ± 4 mg/dL and a P-Cholesterol of 345 ± 27 mg/dL.

For the molecule `CN(CCOc1ccc(CC2SC(=O)NC2=O)cc1)c1ccccn1` (stereo not shown) [rosiglitazone, reference compound], in data set [3] (5 mg/Kg/bid by gavage), the P-triglycerides turned out to be 41 ± 3 mg/dL and the P-Cholesterol came out at 354 ± 23 mg/dL. The molecule also had a P-triglycerides in data set [4] (5 mg/kg/bid by gavage) of 74 ± 10 mg/dL. The molecule also had a P-hdl-cholesterol in data set [4] (5 mg/kg/bid by gavage, control 163 ± 6) of 144 ± 18 mg/dL.

As usually defined, the melting point is the temperature, or range, at which the solid turns liquid.
